{"source": "patent US9656984B2", "about": "“PI3K/AKT/mTOR inhibitors and pharmaceutical uses thereof” (UNIVERSITE DE RENNES 1, priority 2013, dated 2017)", "key": {"[1]": {"system": "MDA-MB-231 cells", "test": "Boyden chamber cell migration, MDA-MB-231 stimulated with CD95L", "assay_type": "cell-based, human", "conditions": "MDA-MB-231, 1 μM, CD95L 100 ng/ml, 24 hours, FIG. 17B", "experimental": "TNBC (MDA-MB-231 and BT549) cell lines were pre-incubated for 1 hour in presence or absence of non-cytotoxic amount of compound 25 (1 μM) and then treated or untreated with CD95L (100 ng/ml) for 24 hours. Cell migration was analyzed using Boyden chamber assay. Migrating Giemsa-stained cells were lysed and absorbance was measured at a wavelength of 560 nm. Values represent the means±SEM of three independently performed experiments. *p<0.05 as calculated using two-tailed Mann-Whitney test.\nAfter membrane hydration of Boyden chambers (Millipore, Molsheim, France) containing 8 μm pore membranes, 10^5 cells were added to the top chamber. The bottom chamber was filled with low serum (1%)-containing medium in the presence or absence of cl-CD95L (100 ng/ml). Breast cancer cells were incubated for 24 h. To quantify invasion, cells were fixed with methanol and stained with Giemsa. Stained cells were then removed from the top-side of the membrane using a cotton-tipped swab and five representative pictures for each insert were taken of the invading cells from the reverse side. For each experiment, invading cells were lysed and absorbance at 560 nm was measured."}, "[2]": {"target": "T1, mTOR protein regarding 243 human kinases (Homo sapiens, UniProt P42345)", "T1 construct": "purchased", "test": "Kinome by KinaseProfiler", "assay_type": "biochemical", "conditions": "1 μM, FIG. 11"}, "[3]": {"target": "mTORC2 (Homo sapiens, UniProt P42345)", "test": "Immunoblot of mTORC2 substrate Akt-Ser473 in CEM cells", "assay_type": "cell-based", "design": "endogenous in cells; host or cells: CEM cells", "conditions": "2 hours, FIG. 16", "experimental": "(§1) CEM cells (1·10^6 cells) were incubated with indicated concentrations of compound 25 for 2 hours and lysates of the cells were subjected to Western blot analysis. Inhibitory activity of compound 25 on mTORC1 substrates p70S6K-Thr389 and 4EBP1-Thr37 and 46 and on mTORC2 substrate Akt-Ser473 and on PDK1 substrate Akt-Thr308 was evaluated by immunoblotting. Total 4EBP1, p70S6K, Akt and […] serve as loading controls. The compounds of the invention and more particularly compound 25 may be competitive inhibitors of mTOR because they inhibit mTORC1 (4EBP1 and p70S6K) and mTORC2 substrates (AKT at S473) as shown in FIG. 16.\n(§2) Immunoblots Excepted for immunoprecipitation experiments in which cells were lyzed with RIPA buffer, cells were lyzed for 30 min at 4° C. in Lysis buffer (25 mM HEPES pH 7.4, 1% v/v Triton X-100, 150 mM NaCl, 2 mM EGTA supplemented with a mix of protease inhibitors). Protein concentration was determined by the bicinchoninic acid method (Pierce, Rockford, Ill., USA) according to the manufacturer's protocol. Proteins were resolved by 8, 10 or 12% SDS-PAGE and transferred to a nitrocellulose membrane (GE Healthcare, Buckinghamshire, UK). The membrane was blocked 15 min with TBST (50 mM Tris, 160 mM NaCl, 0.05% v/v Tween 20, pH 7.4) containing 5% w/v dried skimmed milk (TBS™). Primary antibody was incubated overnight at 4° C. in TBS™. […]"}, "[4]": {"target": "T2, mTORC1 (Homo sapiens, UniProt P42345)", "test": "Immunoblot of mTORC1 substrates p70S6K-Thr389 and 4EBP1-Thr37 and 46 in CEM cells", "assay_type": "cell-based", "design": "AML cells (1.10^6 cells) deficient for TSC2 (TS2^−/−) or reconstituted with wild type TSC2; endogenous in cells", "conditions": "2 hours, FIG. 16", "experimental": "as §1, §2"}, "[5]": {"target": "T2, mTORC1", "test": "Immunoblot of mTORC1 activity in TSC2^−/− AML cells", "assay_type": "cell-based", "design": "AML cells (1.10^6 cells) deficient for TSC2 (TS2^−/−) or reconstituted with wild type TSC2; endogenous in cells; host or cells: AML (angiomyolipoma) cells from a patient, TSC2-/- or reconstituted with wild type TSC2", "conditions": "10 μM, FIG. 15", "experimental": "AML cells (1.10^6 cells) deficient for TSC2 (TS2^−/−) or reconstituted with wild type TSC2 (TSC2^+/+) (generous gift from Dr M. Pende, Paris) were treated or untreated for indicated times with 10 μM of compound 25 or rapamycin and then cells were lyzed. 100 μg of protein was loaded and resolved by SDS-PAGE and indicated immunoblots were performed. Total S6 and β-actin serve as loading controls. S6 is phosphorylated by p70S6K on its serine 240 and 244. 4EBP1 is phosphorylated by mTORC1 on its Threonine at positions 37 and 46. p70S6K and 4EBP1 are direct substrates of mTORC1. mTORC1-driven phosphorylation of 4EBP1 can be monitored by the appearance of a high molecular weight band which disappears in presence of compound 25 or Rapamycin (see FIG. 15). Of note, restoration of TS2 expression in AML cells reduces the basal level of S6 and 4EBP1 phosphorylation.\nImmunoblots Excepted for immunoprecipitation experiments in which cells were lyzed with RIPA buffer, cells were lyzed for 30 min at 4° C. in Lysis buffer (25 mM HEPES pH 7.4, 1% v/v Triton X-100, 150 mM NaCl, 2 mM EGTA supplemented with a mix of protease inhibitors). Protein concentration was determined by the bicinchoninic acid method (Pierce, Rockford, Ill., USA) according to the manufacturer's protocol. Proteins were resolved by 8, 10 or 12% SDS-PAGE and transferred to a nitrocellulose membrane (GE Healthcare, Buckinghamshire, UK). […]"}, "[6]": {"system": "PI3K/AKT activity (AKT phosphorylation)", "test": "PI3K/AKT/mTOR pathway inhibitory activity: level of AKT phosphorylation in CEM cells over time", "assay_type": "cell-based, human", "conditions": "10 μM, FIGS. 7 and 8", "experimental": "The CEM cell was incubated with 10 μM of each mentioned compound of formula (I) for the indicated times and then cells were lysed and 100 μg of protein was loaded per line and resolved by SDS-PAGE. The levels of AKT phosphorylation (hallmark of PI3K activation) and total AKT (loading control) were analyzed by Western blot and the amount of AKT phosphorylation relative to the total amount of protein AKT was quantified by densitometric analysis, the intensity of each band was scanned and the level of AKT phosphorylation was reported to the amount of whole AKT and the percentage of phosphorylated-AKT was depicted.\nImmunoblots Excepted for immunoprecipitation experiments in which cells were lyzed with RIPA buffer, cells were lyzed for 30 min at 4° C. in Lysis buffer (25 mM HEPES pH 7.4, 1% v/v Triton X-100, 150 mM NaCl, 2 mM EGTA supplemented with a mix of protease inhibitors). Protein concentration was determined by the bicinchoninic acid method (Pierce, Rockford, Ill., USA) according to the manufacturer's protocol. Proteins were resolved by 8, 10 or 12% SDS-PAGE and transferred to a nitrocellulose membrane (GE Healthcare, Buckinghamshire, UK). The membrane was blocked 15 min with TBST (50 mM Tris, 160 mM NaCl, 0.05% v/v Tween 20, pH 7.4) containing 5% w/v dried skimmed milk (TBS™). Primary antibody was incubated overnight at 4° C. in TBS™. The membrane was intensively washed (TBST) and then the peroxydase-labeled anti-mouse IgG1 or IgG2a (CliniSciences, Nanterre, France) was added for 45 min. Proteins were visualized with the enhanced chemiluminescence substrate kit (ECL RevelBIOt®, Ozyme, Saint Quentin en Yvelines, France)."}}}
{"smiles": "O=[N+]([O-])C1=Cc2cc(Br)cc(Br)c2OC1c1ccc(Br)cc1", "note": "(stereo not shown) [Compound 25, 6,8-dibromo-2-(4-bromo-phenyl)-3-nitro-2H-chromene]", "values": [{"measurement": "migration of tumor cells stimulated with CD95L", "setting": "[1]", "value": "abrogate"}, {"measurement": "selectivity in kinome", "setting": "[2]", "value": "selectivity of compound 25 for the mTOR protein"}, {"measurement": "inhibitory activity on mTORC2 substrate (AKT at S473)", "setting": "[3]", "value": "inhibit"}, {"measurement": "inhibitory activity on mTORC1 substrates (4EBP1 and p70S6K)", "setting": "[4]", "value": "inhibit"}, {"measurement": "mTORC1 activity in TSC2^−/− cells", "setting": "[5]", "value": "inhibit mTORC1 activity"}, {"measurement": "mTORC1-driven phosphorylation of 4EBP1 (high molecular weight band)", "setting": "[5]; AML cells", "value": "disappears"}, {"measurement": "inhibitory activity on PI3K/AKT (level of AKT phosphorylation)", "setting": "[6]", "value": "very strong inhibitors"}]}
